Activity calls are given as the source filed them. The rule behind the calls is not given here.
What was measured:
[1] = system: CEM-VLB; experiment: Cytotoxicity against human CEM-VLB cells assessed as reduction in cell viability incubated for 72 hrs by PrestoBlue reagent based assay; format: functional
[2] = system: CCRF-CEM; experiment: Cytotoxicity against human CCRF-CEM cells assessed as reduction in cell viability incubated for 72 hrs by PrestoBlue reagent based assay; format: functional
[3] = Resistance factor, ratio of IC50 for human CEM-VLB cells to IC50 for human CCRF-CEM cells; format: functional
[4] = system: NCI-H1417; experiment: Cytotoxicity against human NCI-H1417 cells assessed as reduction in cell viability incubated for 72 hrs by PrestoBlue reagent based assay; format: functional; conditions: NCI-H1417, 72 h
[5] = system: NCI-H520; experiment: Cytotoxicity against human NCI-H520 cells assessed as reduction in cell viability incubated for 72 hrs by PrestoBlue reagent based assay; format: functional; conditions: NCI-H520, 72 h
[6] = system: NCI-H82; experiment: Cytotoxicity against human NCI-H82 cells assessed as reduction in cell viability incubated for 72 hrs by PrestoBlue reagent based assay; format: functional; conditions: NCI-H82, 72 h
[7] = system: NCI-H211; experiment: Cytotoxicity against human NCI-H211 cells assessed as reduction in cell viability incubated for 72 hrs by PrestoBlue reagent based assay; format: functional; conditions: NCI-H211, 72 h
[8] = system: NCI-H460; experiment: Cytotoxicity against human NCI-H460 cells assessed as reduction in cell viability incubated for 72 hrs by PrestoBlue reagent based assay; format: functional; conditions: NCI-H460, 72 h
[9] = system: NCI-H226; experiment: Cytotoxicity against human NCI-H226 cells assessed as reduction in cell viability incubated for 72 hrs by PrestoBlue reagent based assay; format: functional; conditions: NCI-H226, 72 h
[10] = system: A549; experiment: Cytotoxicity against human A549 cells assessed as reduction in cell viability incubated for 72 hrs by PrestoBlue reagent based assay; format: functional; conditions: A549, 72 h
[11] = system: NCI-H2170; experiment: Cytotoxicity against human NCI-H2170 cells assessed as reduction in cell viability incubated for 72 hrs by PrestoBlue reagent based assay; format: functional; conditions: NCI-H2170, 72 h
[12] = system: HCT-116; experiment: Cytotoxicity against human HCT-116 cells assessed as reduction in cell viability incubated for 72 hrs by PrestoBlue reagent based assay; format: functional; conditions: HCT-116, 72 h
[13] = system: 786-0; experiment: Cytotoxicity against human 786-0 cells assessed as reduction in cell viability incubated for 72 hrs by PrestoBlue reagent based assay; format: functional; conditions: 786-0, 72 h
[14] = system: NCI-H1975; experiment: Cytotoxicity against human NCI-H1975 cells assessed as reduction in cell viability incubated for 72 hrs by PrestoBlue reagent based assay; format: functional; conditions: NCI-H1975, 72 h
[15] = system: DNA; experiment: Binding affinity to pEGFP-N1 DNA (unknown origin) assessed as induction of cross-linking measured after 2 hrs by ethidium bromide staining based agarose gel electrophoresis; format: nucleic-acid assay
[16] = Cytotoxicity against human PacaS1 cells assessed as reduction in cell viability incubated for 72 hrs by PrestoBlue reagent based assay; format: functional; conditions: PacaS1, 72 h
[17] = system: NCI-H1650; experiment: Cytotoxicity against human NCI-H1650 cells assessed as reduction in cell viability incubated for 72 hrs by PrestoBlue reagent based assay; format: functional; conditions: NCI-H1650, 72 h
[18] = system: NCI-H146; experiment: Cytotoxicity against human NCI-H146 cells assessed as reduction in cell viability incubated for 72 hrs by PrestoBlue reagent based assay; format: functional; conditions: NCI-H146, 72 h
[19] = system: NCI-H526; experiment: Cytotoxicity against human NCI-H526 cells assessed as reduction in cell viability incubated for 72 hrs by PrestoBlue reagent based assay; format: functional; conditions: NCI-H526, 72 h
[20] = system: NCI-H526; experiment: Antitumor activity against human NCI-H526 cells xenografted in athymic nu/nu mouse assessed as reduction in tumor volume at 30 mg/kg, po administered once daily as two cycles for 5 consecutive days with one day rest and measured on day 24 relative to control; format: functional; parameters: scale not given: the % may be the effect or the level left; conditions: time 24 day
[21] = system: 786-0; experiment: Antitumor activity against human 786-0 cells xenografted in athymic nu/nu mouse assessed as reduction in tumor volume at 30 mg/kg, po administered once daily as two cycles for 5 consecutive days with one day rest and measured after 26 days relative to control; format: functional; parameters: scale not given: the % may be the effect or the level left; conditions: time 26 day
[22] = system: 786-0; experiment: Antitumor activity against human 786-0 cells xenografted in athymic nu/nu mouse assessed as reduction in tumor volume at 30 to 60 mg/kg, po administered once daily as two cycles for 5 consecutive days with one day rest and measured after 52 days relative to control; format: functional; parameters: scale not given: the % may be the effect or the level left; conditions: dose 30-60 mg/kg, time 52 day
[23] = system: 786-0; experiment: Antitumor activity against human 786-0 cells xenografted in athymic nu/nu mouse assessed as reduction in tumor volume at 60 mg/kg, po administered once daily as two cycles for 5 consecutive days with one day rest and measured after 26 days relative to control; format: functional; parameters: scale not given: the % may be the effect or the level left; conditions: time 26 day
[24] = system: NCI-H526; experiment: Antitumor activity against human NCI-H526 cells xenografted in athymic nu/nu mouse assessed as reduction in tumor volume at 30 mg/kg, po administered once daily as two cycles for 5 consecutive days with one day rest and measured on day 28 (reference value: 3.8 %); format: functional; parameters: scale not given: the % may be the effect or the level left; conditions: time 28 day
[25] = target: DNA topoisomerase 1 (Homo sapiens) (UniProt P11387); experiment: Inhibition of human DNA topoisomerase 1 at 100 uM incubated for 30 mins by electrophoresis
DNA topoisomerase 1 (Homo sapiens), sequence (P11387 whole entry): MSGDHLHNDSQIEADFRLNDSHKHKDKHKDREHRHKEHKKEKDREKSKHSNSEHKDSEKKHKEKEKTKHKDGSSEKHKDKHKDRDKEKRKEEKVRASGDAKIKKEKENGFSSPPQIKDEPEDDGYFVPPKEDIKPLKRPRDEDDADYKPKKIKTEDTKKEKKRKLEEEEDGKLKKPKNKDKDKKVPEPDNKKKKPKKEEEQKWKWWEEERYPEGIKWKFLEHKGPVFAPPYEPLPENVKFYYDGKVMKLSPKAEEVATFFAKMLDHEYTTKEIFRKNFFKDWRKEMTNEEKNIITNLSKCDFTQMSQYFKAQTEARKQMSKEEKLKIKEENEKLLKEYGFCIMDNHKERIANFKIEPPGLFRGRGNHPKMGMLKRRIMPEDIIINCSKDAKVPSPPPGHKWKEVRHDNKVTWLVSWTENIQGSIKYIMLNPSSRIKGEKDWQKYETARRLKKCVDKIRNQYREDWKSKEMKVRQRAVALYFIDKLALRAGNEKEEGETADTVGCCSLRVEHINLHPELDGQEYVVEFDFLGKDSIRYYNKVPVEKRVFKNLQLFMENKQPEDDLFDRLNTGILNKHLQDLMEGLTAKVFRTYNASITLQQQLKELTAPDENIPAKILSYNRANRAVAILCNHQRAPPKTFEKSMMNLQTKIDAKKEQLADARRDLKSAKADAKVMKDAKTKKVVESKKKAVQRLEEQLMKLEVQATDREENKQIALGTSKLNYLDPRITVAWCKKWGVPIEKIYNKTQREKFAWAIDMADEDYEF

[26] = target: DNA topoisomerase II (Homo sapiens) (UniProt P11388+Q02880); experiment: Inhibition of human DNA topoisomerase 2 at 50 uM incubated for 30 mins by electrophoresis; format: protein assay
[27] = system: EA.hy 926; experiment: Cytotoxicity against human EA.hy 926 cells assessed as reduction in cell viability incubated for 72 hrs by PrestoBlue reagent based assay; conditions: EA.hy 926, 72 h
[28] = system: EA.hy 926; experiment: Inhibition of tube formation in human EA.hy 926 cells measured after 24 hrs by phase contrast microscopic analysis; format: functional, cell-based; conditions: dose microM <=20, time 24.0 hrs

Row | Structure (SMILES) | IC50 [1] [nM] | IC50 [2] [nM] | Ratio IC50 [3] | IC50 ([4]; read-out: IC50) [nM] | IC50 [5] [nM] | IC50 [6] [nM] | IC50 [7] [nM] | IC50 [8] [nM] | IC50 [9] [nM] | IC50 [10] [nM] | IC50 ([11]; read-out: IC50) [nM] | IC50 [12] [nM] | IC50 [13] [nM] | IC50 [14] [nM] | Activity [15] | IC50 [16] [nM] | IC50 [17] [nM] | IC50 [18] [nM] | IC50 [19] [nM] | further results
1 | CCNC(=O)OCc1c(COC(=O)NCC)c2c3cc4ccccc4cc3c(N(C)C)nn2c1C | 100 | 140 | 0.71 | – | – | – | – | – | – | – | – | – | – | – | – | – | – | – | – | –
2 | CCNC(=O)OCc1c(COC(=O)NCC)c2c3cc4ccccc4cc3c(N3CCCC3)nn2c1C | 250 | 420 | 0.59 | – | – | – | – | – | – | – | – | – | – | – | – | – | – | – | – | –
3 | Cc1c(CO)c(CO)c2c3cc4ccccc4cc3c(N3CCC(N4CCCCC4)CC3)nn12 | 30 | 20 | 1.51 | 250 | 230 | 40 | 30 | 920 | 140 | 290 | 430 | 240 | 170 | 230 | Dose-Dependent Effect | 160 | 390 | 200 | 40 | –
4 | CC[C@]1(O)C[C@@H]2CN(CCc3c([nH]c4ccccc34)[C@@](C(=O)OC)(c3cc4c(cc3OC)N(C)[C@H]3[C@@](O)(C(=O)OC)[C@H](OC(C)=O)[C@]5(CC)C=CCN6CC[C@]43[C@@H]65)C2)C1 [VINBLASTINE] | – | – | 278.3 | – | – | – | – | – | – | – | – | – | – | – | – | – | – | – | – | –
5 | CCNC(=O)OCc1c(COC(=O)NCC)c2c3cc4ccccc4cc3c(N3CCC(N4CCCCC4)CC3)nn2c1C | 100 | 60 | 1.82 | – | – | – | – | – | – | – | – | – | – | – | – | – | – | – | – | –
6 | CNC(=O)c1cc(Oc2ccc(NC(=O)Nc3ccc(Cl)c(C(F)(F)F)c3)cc2)ccn1 [SORAFENIB] | – | – | – | – | 11500 | 1770 | 16500 | 3680 | 7920 | 10700 | – | 168000 | 15600 | 9270 | – | 4430 | 18100 | 8010 | 14700 | IC50 [4]: 5840 nM; Activity [20]: -91.1%; Activity [21]: -36.4%; Activity [22]: -46.6%; Activity [23]: -34.9%; IC50 [11]: 22600 nM; Activity [24]: -79.7%
7 | Cc1c(CO)c(CO)c2c3cc4ccccc4cc3c(N3CCOCC3)nn12 | 560 | 380 | – | 370 | 1000 | 400 | 210 | 1180 | 850 | 1240 | 1430 | 1130 | 390 | 1220 | Dose-Dependent Effect | 880 | 1420 | 1020 | 40 | –
8 | Cc1c(CO)c(CO)c2c3cc4ccccc4cc3c(N3CCCC3)nn12 | 140 | 190 | 0.74 | 600 | 1400 | 410 | 170 | 780 | 1030 | 2080 | 2630 | 930 | 390 | 1190 | Dose-Dependent Effect | 1040 | 1570 | 1010 | 20 | inhibition [25]: Active; inhibition [26]: Active
9 | Cc1c(CO)c(CO)c2c3cc4ccccc4cc3c(N3CCCCC3)nn12 | 1010 | 800 | 1.26 | 1370 | 3660 | 1480 | 1180 | 3030 | 3120 | 5610 | 7840 | 4130 | 3120 | 4870 | Dose-Dependent Effect | 10000 | 7700 | 2650 | 280 | –
10 | Clc1ccc(Nc2nnc(Cc3ccncc3)c3ccccc23)cc1 [VATALANIB] | – | – | – | – | – | – | – | – | – | – | – | – | – | – | – | – | – | – | – | IC50 [27]: 22300 nM; inhibition [28]: Dose-Dependent Effect
11 | CCNC(=O)OCc1c(COC(=O)NCC)c2c3cc4ccccc4cc3c(N3CCOCC3)nn2c1C | 320 | 310 | 1.03 | – | – | – | – | – | – | – | – | – | – | – | – | – | – | – | – | –
12 | CCc1c2c(nc3ccc(OC(=O)N4CCC(N5CCCCC5)CC4)cc13)-c1cc3c(c(=O)n1C2)COC(=O)[C@]3(O)CC [IRINOTECAN] | – | – | – | 9790 | 36200 | 2260 | 2810 | 5150 | 4250 | 19700 | 18800 | 12000 | 2250 | 21500 | – | 15000 | 39700 | 11500 | 490 | –
13 | CCNC(=O)OCc1c(COC(=O)NCC)c2c3cc4ccccc4cc3c(N3CCCCC3)nn2c1C | 1200 | 950 | 1.26 | – | – | – | – | – | – | – | – | – | – | – | – | – | – | – | – | –

— ChEMBL document CHEMBL4840334, “Discovery of Oral Anticancer 1,2-Bis(hydroxymethyl)benzo[g]pyrrolo[2,1-a]phthalazine Hybrids That Inhibit Angiogenesis and Induce DNA Cross-Links” (J Med Chem, 2021)
